In US8314082B2, “Stilbene derivatives for ADP-ribosyl cyclase inhibitors” (Industrial Cooperation Foundation Chonbuk National …, priority 2006, dated 2012):
Where two headings read alike, the source gives them in different places.

Key:
[1] = test system: Ang II induced cADPR production in murine mesangial cells (MMCs); experiment: Ang II-induced intracellular cADPR concentration in MMCs; type: cell-based; conditions: Mus musculus, Mesangial cell, read-out: IC50([CADPR]i, uM) (means ± SEM)
Procedure: [cADPR]i was measured using a cyclic enzymatic assay as described previously [Graeff et al., Biochem. J. (2002)361:379-84]. Aplysia californica ADPR-cyclase was purified from […] according to the method described [Lee et al., Cell Regul. (1991)2:203-9]. Briefly, MMCs were treated with 0.3 ml of 0.6 M perchloric acid under sonication after Ang II treatment. Precipitates were removed by centrifugation at 20,000×g for 10 min. Perchloric acid was removed by mixing the aqueous sample with a solution containing 3 volumes of 1,1,2-trichlorotrifluoroethane to 1 volume of tri-n-octlyamine. After centrifugation for 10 min at 1500×g, the aqueous layer was collected and neutralized with 20 mM sodium phosphate (pH 8). To remove all contaminating nucleotides, the samples were incubated with the following hydrolytic enzymes overnight at 37° C.: 0.44 unit/ml nucleotide pyrophosphatase, 12.5 units/ml alkaline phosphatase, 0.0625 unit/ml NADase, and 2.5 mM MgCl2 in 20 mM sodium phosphate buffer (pH 8.0). Enzymes were removed by filtration using Centricon-3 filters. To convert cADPR to NAD^+, the samples (0.1 ml/tube) were incubated with […] of a cycling reagent containing 0.3 mg/ml Aplysia ADPR-cyclase, 30 mM nicotinamide, and 100 mM sodium phosphate (pH 8) at room temperature for 30 min. The samples were further incubated with the cycling reagent (0.1 ml) containing 2% ethanol, […] alcohol dehydrogenase, 20 mM resazurin, 10 mg/ml diaphorase, 10 mM riboflavin 5′-phosphate, 10 mM nicotinamide, 0.1 mg/ml BSA, and 100 mM sodium phosphate (pH 8.0) for 2 h at room temperature. An increase in the resorufin fluorescence was measured at 544 nm excitation and 590 nm emission using a fluorescence plate reader (Molecular Devices Corp., Spectra-Max GEMINI). Various known concentrations of cADPR were also included in the cycling reaction to generate a standard curve. […] Production of cADPR as well as later sustained Ca^2+ signal in response to Ang II was inhibited with different efficacy by these small molecules (Table 1). […] The order of IC50 was 4,4′-DAHB>resveratrol>azobenzene=piceatannol>2,2′-DAHB.

[2] = test system: Ang II induced [Ca^2+]i increase in murine mesangial cells (MMCs); experiment: Ang II-mediated [Ca2+]i increase in MMCs; type: cell-based; conditions: Mus musculus, Mesangial cell, later sustained Ca2+ signal induced by 150 nM Ang II, 300 s, read-out: IC50([Ca^2+]i, uM) (means ± SEM)
Procedure: Changes in [Ca^2+]i in MMCs were determined as described previously [Kim et al., Exp. Mol. Med. (2006)38:535-45]. Briefly, MMCs cultured on confocal dishes for 48 h at a concentration of 10^4 cells/dish were washed with Hank's balanced salt solution (HBSS) (2 mM CaCl2, 145 mM NaCl, 5 mM KCl, 1 mM MgCl2, 5 mM D-glucose, and 20 mM HEPES, pH 7.3) and then loaded with […] Fluo 3-AM (Molecular Probe, Eugene, Oreg.). Changes in Ca^2+ fluorescence were determined at 488 nm/530 nm (excitation/emission) by air-cooled argon laser system. [Ca^2+]i was calculated using a Kd of 325 nM for Fluo 3-AM by the method of Tsien et al. (1982).

STZ diabetic mice = experiment: Diabetic nephropathy in STZ diabetes mouse model; type: in vivo; conditions: 45 μg/kg i.p. once a day for 6 weeks, mean SE, n = 6
Procedure: Male mice, weighing 20 25 g, were made diabetic by a single intravenous injection of STZ (65 mg/kg body weight) in 0.05 M citrate buffer (pH 4.8). At the same day, the control mice were injected with the citrate buffer. After 2 days, induction of diabetes was confirmed by tail blood glucose level measurement by using the LifeScan One Touch glucometer (Johnson & Johnson). The diabetic mice (>16 mM blood glucose) were randomly divided into two groups; 6 mice per group treated with vehicle (0.1% DMSO in saline, 100 μl) or DHAB (45 μg/kg body weight in 0.1% DMSO in saline, 100 μl) and resveratrol (45 μg/kg body weight in 0.1% DMSO in saline, 100 μl) administered by intraperitoneal injection once a day for 6 weeks. The control mice were 6 mice per group treated with the vehicle. On day 39, the mice were detained in individual metabolic cages for 24 h for urine collection. On day 42, the mice were anesthetized with diethyl ether, and blood samples were taken from the abdominal aorta. Bilateral kidneys were rapidly removed and weighed. Urine was gravimetrically collected, and urinary albumin concentrations were determined with an enzyme-linked immunosorbent assay using a murine microalbuminuria kit (Albuwell; Exocell, Philadelphia, Pa.). Urine and serum creatinine levels were measured using the QuantiChrom Creatinine Assay Kit (BioAssay Systems, Hayward, Calif.), following the manufacturer's protocol.

[3] = cADPR production induced by 150 nM Ang II, 90 s, MMCs

Structure (SMILES)	IC50 [1]	IC50 [2]	IC50 [1, 3]	Urine output (STZ diabetic mice; 24 h metabolic cage)	Body Weight (STZ diabetic mice)	Food intake (STZ diabetic mice)	Plasma glucose (STZ diabetic mice)	Urinary Albumin (STZ diabetic mice)	Water intake (STZ diabetic mice)
c1ccc(N=Nc2ccccc2)cc1 [Azobenzene]	13 ± 2.1 µM	10 ± 1.1 µM							
Oc1cc(O)cc(/C=C/c2ccc(O)c(O)c2)c1 [Piceatannol, 3,5,3′,4′-tetrahydroxy-trans-stilbene]		10 ± 1.7 µM	8.9 ± 1.5 µM						
Oc1ccc(/C=C/c2cc(O)cc(O)c2)cc1 [Resveratrol, 3,5,4′-trihydroxy-trans-stilbene]		5 ± 0.8 µM	5.5 ± 0.5 µM	2.55 ± 2.09 mL/day	22.6 ± 0.70 g	3.12 ± 0.79 g	441 ± 48.7 mg/dL	2.97 ± 2.11 µg/day	5.67 ± 3.21 mL
